Measured values: patent publication US20240425464A1, “Substituted Monohydrazides as Potent Antifungal Agents” (University of Kentucky Research Foundation, priority 2023, published 2024)
Converted amounts (≈) assume the structure as drawn. Where two headings read alike, the source gives them in different places.

Experiments:
Format in all cases: cell-based, Candida albicans
[1] = tested on: C. albicans ATCC 10231 (strain A); assay: MIC determination by in vitro antifungal assay (CLSI broth dilution); settings: strain A = C. albicans ATCC 10231, no visible growth, 48 h at 35° C.
Summary of the method: (§1)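 Fungi are exposed to compounds (0.06-31.3 μg/mL, double dilution) in RPMI 1640 adjusted to pH 7.0 with MOPS. Incubation runs 48 h at 35° C, based on CLSI M27-A3/M38-A2. Yeast suspensions start at ˜1×10^6 CFU/mL and are diluted 1:100.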

[2] = tested on: C. albicans ATCC 64124 (B); assay: MIC determination by in vitro antifungal assay
Summary of the method: as §1

[3] = tested on: C. albicans ATCC MYA-2876 (C); assay: MIC determination by in vitro antifungal assay; settings: strain C = C. albicans ATCC MYA-2876(S)
Summary of the method: as §1

[4] = tested on: C. albicans ATCC MYA-1237 (F); assay: MIC determination by in vitro antifungal assay; settings: strain F = C. albicans ATCC MYA-1237(R)
Summary of the method: as §1

[5] = tested on: C. albicans ATCC MYA-2310 (E); assay: MIC determination by in vitro antifungal assay; settings: strain E = C. albicans ATCC MYA-2310
Summary of the method: as §1

[6] = tested on: C. albicans ATCC 90819 (D); assay: MIC determination by in vitro antifungal assay
Summary of the method: as §1

[7] = tested on: C. albicans ATCC MYA-1003 (G); assay: MIC determination by in vitro antifungal assay; settings: strain G = C. albicans ATCC MYA-1063(R) (footnote), MYA-1003 in text
Summary of the method: as §1

[8] = Candida albicans, ATCC10231, 48 h, read-out: MIC
[9] = Candida albicans, ATCC64124, strain B = C. albicans ATCC 64124, read-out: MIC
[10] = Candida albicans, read-out: MIC
[11] = Candida albicans, ATCC90819, strain D = C. albicans ATCC 90819(R), read-out: MIC
[12] = strain B = C. albicans ATCC 64124
[13] = strain D = C. albicans ATCC 90819(R)

Compound | MIC [1, 8] | MIC [2, 9] | MIC [3, 10] | MIC [4, 10] | MIC [5, 10] | MIC [6, 11] | MIC [7, 10] | MIC [1] | MIC [2, 12] | MIC [3] | MIC [4] | MIC [5] | MIC [6, 13] | MIC [7]
O=C(NNc1ccc(F)cc1)c1nc(F)ccc1F [Compound 8d] | 0.24 µg/mL (≈ 0.898 µM) | 0.98 µg/mL (≈ 3.67 µM) | 0.98 µg/mL (≈ 3.67 µM) | 0.98 µg/mL (≈ 3.67 µM) | 0.98 µg/mL (≈ 3.67 µM) | 0.98 µg/mL (≈ 3.67 µM) | 0.49 µg/mL (≈ 1.83 µM) | – | – | – | – | – | – | –
O=C(NNc1cc(F)ccc1F)c1ccc(F)cc1F [Compound 1h] | 3.9 µg/mL (≈ 13.7 µM) | 15.6 µg/mL (≈ 54.9 µM) | 31.3 µg/mL (≈ 110 µM) | 31.3 µg/mL (≈ 110 µM) | 31.3 µg/mL (≈ 110 µM) | 31.3 µg/mL (≈ 110 µM) | 31.3 µg/mL (≈ 110 µM) | – | – | – | – | – | – | –
O=C(NNc1ccc(Cl)cc1)c1ncc(F)cc1F [Compound 7e] | – | – | – | – | – | – | – | 3.9 μg/mL^−1 | 3.9 μg/mL^−1 | 3.9 μg/mL^−1 | 0.49 μg/mL^−1 | 1.95 μg/mL^−1 | 7.8 μg/mL^−1 | 1.95 μg/mL^−1
O=C(NNc1cc(Cl)cc(Cl)c1)c1ccccn1 [Compound 2j] | 0.24 µg/mL (≈ 0.851 µM) | 1.95 µg/mL (≈ 6.91 µM) | 1.95 µg/mL (≈ 6.91 µM) | 3.9 µg/mL (≈ 13.8 µM) | 1.95 µg/mL (≈ 6.91 µM) | 0.98 µg/mL (≈ 3.47 µM) | 1.95 µg/mL (≈ 6.91 µM) | – | – | – | – | – | – | –
O=C(NNc1cccc(F)c1)c1ccc(Br)cn1 [Compound 4a] | – | – | – | – | – | – | – | 0.49 μg/mL^−1 | 0.49 μg/mL^−1 | 1.95 μg/mL^−1 | 3.9 μg/mL^−1 | 3.9 μg/mL^−1 | 3.9 μg/mL^−1 | 0.98 μg/mL^−1
O=C(NNc1cccc(F)c1)c1cccc(Br)n1 [Compound 6a] | – | – | – | – | – | – | – | 0.49 μg/mL^−1 | 1.95 μg/mL^−1 | 1.95 μg/mL^−1 | 3.9 μg/mL^−1 | 3.9 μg/mL^−1 | 7.8 μg/mL^−1 | 3.9 μg/mL^−1
O=C(NNc1cccc(Cl)c1)c1ccc(F)cc1F [Compound 1b] | 1.95 µg/mL (≈ 6.9 µM) | 7.8 µg/mL (≈ 27.6 µM) | 7.8 µg/mL (≈ 27.6 µM) | 3.9 µg/mL (≈ 13.8 µM) | 7.8 µg/mL (≈ 27.6 µM) | 15.6 µg/mL (≈ 55.2 µM) | 3.9 µg/mL (≈ 13.8 µM) | – | – | – | – | – | – | –
O=C(NNc1ccc(Cl)cc1)c1ccc(F)cn1 [Compound 3e] | – | – | – | – | – | – | – | 1.95 μg/mL^−1 | 1.95 μg/mL^−1 | 1.95 μg/mL^−1 | 1.95 μg/mL^−1 | 1.95 μg/mL^−1 | 3.9 μg/mL^−1 | 0.98 μg/mL^−1
COc1cccc(NNC(=O)c2ccc(F)cn2)c1 [Compound 3c] | – | – | – | – | – | – | – | 0.24 μg/mL^−1 | 0.95 μg/mL^−1 | 0.49 μg/mL^−1 | 1.95 μg/mL^−1 | 1.95 μg/mL^−1 | 3.9 μg/mL^−1 | 0.98 μg/mL^−1
COc1ccc(NNC(=O)c2cnccn2)cc1 [Compound 9f] | 0.49 µg/mL (≈ 2.01 µM) | 0.98 µg/mL (≈ 4.01 µM) | 1.95 µg/mL (≈ 7.98 µM) | 0.98 µg/mL (≈ 4.01 µM) | 1.95 µg/mL (≈ 7.98 µM) | 0.98 µg/mL (≈ 4.01 µM) | 1.95 µg/mL (≈ 7.98 µM) | – | – | – | – | – | – | –
O=C(NNc1ccc(Cl)cc1)c1cccc(F)n1 [Compound 5e] | – | – | – | – | – | – | – | 1.95 μg/mL^−1 | 1.95 μg/mL^−1 | 1.95 μg/mL^−1 | 0.98 μg/mL^−1 | 1.95 μg/mL^−1 | 3.9 μg/mL^−1 | 0.98 μg/mL^−1
COc1cccc(NNC(=O)c2ccc(Br)cn2)c1 [Compound 4c] | 0.98 µg/mL (≈ 3.04 µM) | 0.98 µg/mL (≈ 3.04 µM) | 0.49 µg/mL (≈ 1.52 µM) | 1.95 µg/mL (≈ 6.05 µM) | 1.95 µg/mL (≈ 6.05 µM) | 3.9 µg/mL (≈ 12.1 µM) | 0.98 µg/mL (≈ 3.04 µM) | – | – | – | – | – | – | –
O=C(NNc1cccc(F)c1)c1cnccn1 [Compound 9a] | – | – | – | – | – | – | – | 0.24 μg/mL^−1 | 1.95 μg/mL^−1 | 3.9 μg/mL^−1 | 0.98 μg/mL^−1 | 7.8 μg/mL^−1 | 0.98 μg/mL^−1 | 0.98 μg/mL^−1
O=C(NNc1ccc(F)cc1)c1cccc(Br)n1 [Compound 6d] | 0.98 µg/mL (≈ 3.16 µM) | 1.95 µg/mL (≈ 6.29 µM) | 3.9 µg/mL (≈ 12.6 µM) | 3.9 µg/mL (≈ 12.6 µM) | 3.9 µg/mL (≈ 12.6 µM) | 3.9 µg/mL (≈ 12.6 µM) | 1.95 µg/mL (≈ 6.29 µM) | – | – | – | – | – | – | –
O=C(NNc1ccc(F)cc1F)c1ccccn1 [Compound 2g] | 0.12 µg/mL (≈ 0.482 µM) | 1.95 µg/mL (≈ 7.82 µM) | 0.98 µg/mL (≈ 3.93 µM) | 0.49 µg/mL (≈ 1.97 µM) | 31.3 µg/mL (≈ 126 µM) | 0.98 µg/mL (≈ 3.93 µM) | 0.49 µg/mL (≈ 1.97 µM) | – | – | – | – | – | – | –
O=C(NNc1ccc(F)cc1F)c1ccc(F)cc1F [Compound 1g] | 1.95 µg/mL (≈ 6.86 µM) | 1.95 µg/mL (≈ 6.86 µM) | 3.9 µg/mL (≈ 13.7 µM) | 1.95 µg/mL (≈ 6.86 µM) | > 31.3 µg/mL | 3.9 µg/mL (≈ 13.7 µM) | 0.98 µg/mL (≈ 3.45 µM) | – | – | – | – | – | – | –
O=C(NNc1cccc(F)c1)c1nc(F)ccc1F [Compound 8a] | – | – | – | – | – | – | – | 0.98 μg/mL^−1 | 0.98 μg/mL^−1 | 1.95 μg/mL^−1 | 1.95 μg/mL^−1 | 1.95 μg/mL^−1 | 3.9 μg/mL^−1 | 0.98 μg/mL^−1
O=C(NNc1cc(Cl)cc(Cl)c1)c1cnccn1 [Compound 9j] | 0.49 µg/mL (≈ 1.73 µM) | 3.9 µg/mL (≈ 13.8 µM) | 3.9 µg/mL (≈ 13.8 µM) | 1.95 µg/mL (≈ 6.89 µM) | 7.8 µg/mL (≈ 27.6 µM) | 1.95 µg/mL (≈ 6.89 µM) | 3.9 µg/mL (≈ 13.8 µM) | – | – | – | – | – | – | –
O=C(NNc1ccc(F)cc1)c1ccc(F)cn1 [Compound 3d] | – | – | – | – | – | – | – | 0.49 μg/mL^−1 | 1.95 μg/mL^−1 | 3.9 μg/mL^−1 | 1.95 μg/mL^−1 | 3.9 μg/mL^−1 | 1.95 μg/mL^−1 | 1.95 μg/mL^−1
O=C(NNc1cccc(Cl)c1)c1cnccn1 [Compound 9b] | 0.24 µg/mL (≈ 0.965 µM) | 1.95 µg/mL (≈ 7.84 µM) | 1.95 µg/mL (≈ 7.84 µM) | 0.98 µg/mL (≈ 3.94 µM) | 7.8 µg/mL (≈ 31.4 µM) | 3.9 µg/mL (≈ 15.7 µM) | 0.98 µg/mL (≈ 3.94 µM) | – | – | – | – | – | – | –
O=C(NNc1ccc(F)cc1F)c1nc(F)ccc1F [Compound 8g] | 0.98 µg/mL (≈ 3.44 µM) | 1.95 µg/mL (≈ 6.84 µM) | 1.95 µg/mL (≈ 6.84 µM) | 1.95 µg/mL (≈ 6.84 µM) | 1.95 µg/mL (≈ 6.84 µM) | 3.9 µg/mL (≈ 13.7 µM) | 0.98 µg/mL (≈ 3.44 µM) | – | – | – | – | – | – | –
COc1ccc(NNC(=O)c2ccccn2)cc1 [Compound 2f] | 0.12 µg/mL (≈ 0.493 µM) | 0.98 µg/mL (≈ 4.03 µM) | 1.95 µg/mL (≈ 8.02 µM) | 0.98 µg/mL (≈ 4.03 µM) | 0.98 µg/mL (≈ 4.03 µM) | 0.49 µg/mL (≈ 2.01 µM) | 0.98 µg/mL (≈ 4.03 µM) | – | – | – | – | – | – | –
O=C(NNc1ccc(F)cc1)c1ncc(F)cc1F [Compound 7d] | 0.98 µg/mL (≈ 3.67 µM) | 1.95 µg/mL (≈ 7.3 µM) | 1.95 µg/mL (≈ 7.3 µM) | 1.95 µg/mL (≈ 7.3 µM) | 3.9 µg/mL (≈ 14.6 µM) | 1.95 µg/mL (≈ 7.3 µM) | 0.98 µg/mL (≈ 3.67 µM) | – | – | – | – | – | – | –
COc1ccc(NNC(=O)c2ncc(F)cc2F)cc1 [Compound 7f] | 1.95 µg/mL (≈ 6.98 µM) | 1.95 µg/mL (≈ 6.98 µM) | 1.95 µg/mL (≈ 6.98 µM) | 0.98 µg/mL (≈ 3.51 µM) | 1.95 µg/mL (≈ 6.98 µM) | 1.95 µg/mL (≈ 6.98 µM) | 0.98 µg/mL (≈ 3.51 µM) | – | – | – | – | – | – | –
